# Test results taken from ChEMBL document CHEMBL1152163, “Development of novel 2-[4-(aminoalkoxy)phenyl]-4(3H)-quinazolinone derivatives as potent and selective histamine H3 receptor inverse agonists” (Bioorg Med Chem Lett, 2008).
# Columns and labels:
# [1] = biological target: T1, Alpha-1A adrenergic receptor (Homo sapiens, UniProt P35348); experiment: Displacement of [3H]prazosin from human adrenergic alpha1A receptor expressed in LMtk- cells; format: cell-based
# T1 sequence (P35348 whole entry): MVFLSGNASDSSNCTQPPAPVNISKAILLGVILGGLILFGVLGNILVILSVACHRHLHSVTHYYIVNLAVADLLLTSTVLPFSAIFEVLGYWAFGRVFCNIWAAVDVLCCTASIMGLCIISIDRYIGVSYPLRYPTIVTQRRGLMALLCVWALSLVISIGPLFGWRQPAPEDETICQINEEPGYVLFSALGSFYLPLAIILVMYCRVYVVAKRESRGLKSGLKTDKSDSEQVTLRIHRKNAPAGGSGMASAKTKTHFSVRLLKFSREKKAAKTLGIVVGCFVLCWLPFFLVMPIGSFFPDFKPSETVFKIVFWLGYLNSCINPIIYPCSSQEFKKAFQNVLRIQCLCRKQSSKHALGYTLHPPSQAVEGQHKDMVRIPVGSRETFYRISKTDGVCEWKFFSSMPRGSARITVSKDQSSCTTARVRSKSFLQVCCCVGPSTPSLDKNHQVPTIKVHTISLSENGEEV
# [2] = biological target: Histamine H1 receptor (Homo sapiens, UniProt P35367); experiment: Inhibition of human histamine H1 receptor
# [3] = biological target: Histamine H2 receptor (Homo sapiens, UniProt P25021); experiment: Inhibition of human histamine H2 receptor
# [4] = biological target: Histamine H4 receptor (Homo sapiens, UniProt Q9H3N8); experiment: Inhibition of human histamine H4 receptor
# [5] = system: Rattus norvegicus; experiment: Plasma clearance in Sprague-Dawley rat at 1 mg/kg, iv; format: ADME, organism-based; set-up: dose 1 mg/kg, route intravenous; details: in vivo
# [6] = Volume of distribution at steady state in Sprague-Dawley rat at 1 mg/kg, iv; format: ADME, organism-based; set-up: dose 1 mg/kg, route intravenous; details: in vivo, read-out: Vdss
# [7] = Half life in Sprague-Dawley rat at 1 mg/kg, iv; format: ADME, organism-based; set-up: dose 1 mg/kg, route intravenous; details: in vivo
# [8] = Cmax in Sprague-Dawley rat at 3 mg/kg, po; format: ADME, organism-based; set-up: dose 3 mg/kg, route oral; details: in vivo
# [9] = AUC (0 to infinity) in Sprague-Dawley rat at 3 mg/kg, po; format: ADME, organism-based; set-up: time infinity, dose 3 mg/kg, route oral; details: plasma
# [10] = Oral bioavailability in Sprague-Dawley rat; format: ADME, organism-based; details: in vivo
# [11] = system: Brain; experiment: Drug level in Sprague-Dawley rat brain at 10 mg/kg, po; format: ADME, organism-based; set-up: dose 10 mg/kg, route oral; details: in vivo
# [12] = system: Rattus norvegicus; experiment: Plasma concentration in Sprague-Dawley rat at 10 mg/kg, po; format: ADME, organism-based; set-up: dose 10 mg/kg, route oral; details: in vivo
# [13] = system: Rattus norvegicus; experiment: Increase in tele-methylhistamine level in po dosed Sprague-Dawley rat brain; format: functional, organism-based
# Histamine H2 receptor, sequence (P25021 whole entry): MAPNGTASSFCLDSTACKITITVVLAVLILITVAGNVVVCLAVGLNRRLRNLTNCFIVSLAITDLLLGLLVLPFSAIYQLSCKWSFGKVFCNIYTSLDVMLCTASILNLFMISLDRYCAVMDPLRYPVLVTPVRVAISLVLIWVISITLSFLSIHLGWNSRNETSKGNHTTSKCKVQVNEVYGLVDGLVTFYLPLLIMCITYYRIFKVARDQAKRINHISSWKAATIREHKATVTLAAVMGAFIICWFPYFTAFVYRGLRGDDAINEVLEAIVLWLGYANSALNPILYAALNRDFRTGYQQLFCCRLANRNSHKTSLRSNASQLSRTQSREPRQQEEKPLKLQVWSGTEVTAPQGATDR
# Histamine H1 receptor, sequence (P35367 whole entry): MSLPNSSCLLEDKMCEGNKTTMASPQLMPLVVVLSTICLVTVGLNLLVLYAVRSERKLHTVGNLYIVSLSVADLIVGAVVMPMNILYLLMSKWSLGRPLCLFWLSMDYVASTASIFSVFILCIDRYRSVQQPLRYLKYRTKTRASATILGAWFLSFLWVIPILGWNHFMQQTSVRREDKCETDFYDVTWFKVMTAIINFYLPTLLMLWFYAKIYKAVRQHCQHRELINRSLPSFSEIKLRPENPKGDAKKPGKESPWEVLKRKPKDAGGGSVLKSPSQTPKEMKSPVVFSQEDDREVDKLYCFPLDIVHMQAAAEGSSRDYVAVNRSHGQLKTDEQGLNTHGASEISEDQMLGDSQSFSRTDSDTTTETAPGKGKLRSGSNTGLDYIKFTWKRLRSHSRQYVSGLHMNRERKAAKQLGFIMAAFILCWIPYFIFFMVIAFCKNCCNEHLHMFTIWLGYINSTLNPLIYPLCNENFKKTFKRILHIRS
SMILES,IC50 [1],further results
O=c1c2ccccc2nc(-c2ccc(OCCCN3CCCCC3)cc2)n1Cc1ccccc1,7.2 µM,
COc1cccc2c(=O)n(C)c(-c3ccc(OC4CCN(C5CCC5)CC4)cc3)nc12,> 10 µM,
COc1nccc2c(=O)n(C)c(-c3ccc(OC4CCN(C5CCC5)CC4)cc3)nc12,> 10 µM,IC50 [2]: > 10 µM; IC50 [3]: > 10 µM; IC50 [4]: > 10 µM; clearance [5]: 29 mL/min/kg; Vd [6]: 4.8 L/kg; half-life [7]: 2 h; Cmax [8]: 570 nM; AUC(0-inf) [9]: 2.1 µM·h; bioavailability [10]: 48%; Drug uptake [11]: 2.96 nmol/g; concentration [12]: 2080 nM; Activity [13]: Dose-dependent effect
Cn1c(-c2ccc(OC3CCN(C4CCC4)CC3)cc2)nc2c(C(F)(F)F)cccc2c1=O,> 10 µM,
Cc1cccc2c(=O)n(C)c(-c3ccc(OC4CCN(C5CCC5)CC4)cc3)nc12,10 µM,
Cn1c(-c2ccc(OC3CCN(C4CCCC4)CC3)cc2)nc2ccccc2c1=O,6.2 µM,
Cn1c(-c2ccc(OC3CCN(C4CCC4)CC3)cc2)nc2ccccc2c1=O,6.3 µM,
Cn1c(-c2ccc(OC3CCN(C4CCC4)CC3)cc2)nc2c(Cl)cccc2c1=O,6.5 µM,
COc1ccc2c(=O)n(C)c(-c3ccc(OC4CCN(C5CCC5)CC4)cc3)nc2c1,> 10 µM,
Cc1nc2ccccc2c(=O)n1-c1ccc(OCCCN2CCCCC2)cc1,6.5 µM,

# Stronger by IC50 [1], values ahead:
IC50 [1],SMILES,further results
5.9 µM,COc1ccc2nc(-c3ccc(OC4CCN(C5CCC5)CC4)cc3)n(C)c(=O)c2c1,
4.5 µM,Cn1c(-c2ccc(OC3CCN(C4CCC4)CC3)cc2)nc2c(F)cccc2c1=O,
4.2 µM,COc1cccc2nc(-c3ccc(OC4CCN(C5CCC5)CC4)cc3)n(C)c(=O)c12,
2.9 µM,Cn1c(-c2ccc(OCCCN3CCCCC3)cc2)nc2ccccc2c1=O,
2.4 µM,O=c1c2ccccc2nc(-c2ccc(OCCCN3CCCCC3)cc2)n1-c1ccccc1,
2.2 µM,Cn1c(-c2ccc(OCCCN3CCCC3)cc2)nc2ccccc2c1=O,
1.3 µM,CCn1c(-c2ccc(OCCCN3CCCCC3)cc2)nc2ccccc2c1=O,
